Assay results taken from patent US9884801B2, “Compounds from antrodia camphorata, method for preparing the same and use thereof” (ONENESS BIOTECH CO.,LTD., priority 2014, dated 2018).
Converted amounts (≈) assume the structure as drawn. Like-named read-outs stand apart in the source and are kept apart here.

Experiments:
Assay type in all cases: cell-based
DLD-1 (Colorectal) = test: SRB anti-proliferation assay, DLD-1; conditions: for inhibition at 10 µg/mL: DLD-1, in 10 μg/ml
Experimental: (§1) Various cell lines (5×10^3 cells/well) were sub-cultured onto 96-well plates and starved with serum-free medium for 48 h. Then cells were incubated in medium with 10% FBS in the absence or presence of various concentrations of AC006, AC007, AC009, and AC012 (0.1, 0.3, 1, 3, 10, and 30 μg/ml) for 48 hours. After treatment, the medium was discarded firstly. […]. In order to fix the adherent cells, 100 μl of trichloroacetic acid (10% (w/v)) were adding to each well and incubating at 4° C. for 1 hour. Then the plates were then washed with deionized water and dried in the air. Each well were added with 50 μl of Sulforhodamine B (SRB) solution (0.4% w/v in 1% acetic acid) and incubated for 5 min at room temperature. To remove unbound SRB in the plates, the plates were washed with 1% acetic acid and then air dried. The residual bound SRB was solubilized with 100 μl of 10 mM Tris base buffer (pH 10.5), and then read using a micro titer plate reader at 495 nm.

RKO (Colorectal) = test: SRB anti-proliferation assay, RKO; conditions: for inhibition at 10 µg/mL: in 10 μg/ml
Experimental: as §1

SW-480 (Colon rectal) = test: SRB anti-proliferation assay, SW-480; conditions: for IC50: SW-480, 48 hours; for inhibition at 10 µg/mL: SW480, SW-480, in 10 μg/ml
Experimental: as §1

HCT-116 (Colon rectal) = test: SRB anti-proliferation assay, HCT-116; conditions: Homo sapiens; for IC50: HCT-116, 48 hours; for inhibition at 0.3 µg/mL: HCT-116, in 0.3 μg/ml
Experimental: as §1

[1] = test system: Endothelial progenitor cell (EPCs); test: SRB assay, EPC cell proliferation; conditions: 48 h, read-out: inhibitory concentrations of 50% EPC cell proliferation (IC50)
Experimental: as §1, with “Endothelial progenitor” for “Various”, “(EPCs, 5×10^3” for “lines (5×10^3”, “of” for “of AC006, AC007, AC009, and”, “10” for “10,”, “h.” for “hours. After treatment, the medium was discarded firstly.”

EPCs in presence of VEGF = test: Matrigel capillary tube formation assay; conditions: 1 μg/ml, EPC, VEGF 20 ng/ml, 16 hr; read-out: inhibit tube formation
Experimental: Matrigel was added to 15-well-plates (ibidi) in a total volume of 10 μl in each well. Plates were stood at 37° C. for 30 min to form a gel layer. After gel formation, EPCs (5×10^3 cells) treated with or without AC012 (0.1, 0.3, 1 μg/ml) in presence of VEGF (20 ng/ml) were applied to each well, and plates were incubated for at 37° C. 16 hr with 5% CO2. After incubation, the inverted contrast phase microscope (Nikon, Japan) was used for subject observation.

PC3 (Prostate) = test: SRB anti-proliferation assay, PC3; conditions: PC3, 48 hours
Experimental: as §1

Huh-7 (Liver) = test: SRB anti-proliferation assay, Huh-7; conditions: Homo sapiens; for IC50: Huh-7, 48 hours; for inhibition at 0.3 µg/mL: Huh-7, in 0.3 μg/ml
Experimental: as §1

Sk-Hep-1 (Liver) = test: SRB anti-proliferation assay, Sk-Hep-1; conditions: Homo sapiens, SK-HEP1; Sk-Hep-1, 48 hours
Experimental: as §1

B16F10 (Melanoma) = test: SRB anti-proliferation assay, B16F10; conditions: Mus musculus, B16-F10; B16F10, 48 hours
Experimental: as §1

A549 (Lung) = test: SRB anti-proliferation assay, A549; conditions: Homo sapiens; for IC50: A549, 48 hours; for inhibition at 10 µg/mL: A549, in 10 μg/ml
Experimental: as §1

U251 (Brain, Glioma) = test: SRB anti-proliferation assay, U251; conditions: Homo sapiens, U-251; for IC50: U251, 48 hours
Experimental: as §1

U87 (Brain, Glioma) = test: SRB anti-proliferation assay, U87; conditions: for IC50: U87, 48 hours
Experimental: as §1

LN-229 (Brain, Glioma) = test: SRB anti-proliferation assay, LN-229; conditions: Homo sapiens; for IC50: LN-229, 48 hours
Experimental: as §1

NST (Colon) = test: SRB anti-proliferation assay, NST
Experimental: as §1

HT-29 (Colon) = test: SRB anti-proliferation assay, HT-29; conditions: Homo sapiens; HT-29, 48 hours
Experimental: as §1

COLO205 (Colon) = test: SRB anti-proliferation assay, COLO205; conditions: Homo sapiens, COLO 205; COLO205, 48 hours
Experimental: as §1

4T-1 (Breast) = test: SRB anti-proliferation assay, 4T-1; conditions: 4T-1, 48 hours
Experimental: as §1

[2] = Homo sapiens, DLD-1, 48 h, read-out: IC50
[3] = Homo sapiens, SW480, 48 h, read-out: IC50

Row | Structure (SMILES) | IC50 (DLD-1 (Colorectal); [2]) [µg/mL] | inhibition at 10 µg/mL (DLD-1 (Colorectal); Homo sapiens) [%] | IC50 (RKO (Colorectal); 48 h, read-out: IC50) [µg/mL] | inhibition at 10 µg/mL (RKO (Colorectal)) [%] | IC50 (SW-480 (Colon rectal); [3]) [µg/mL] | inhibition at 10 µg/mL (SW-480 (Colon rectal); Homo sapiens) [%] | IC50 (HCT-116 (Colon rectal)) [µg/mL] | IC50 (PC3 (Prostate)) [µg/mL] | IC50 (Huh-7 (Liver)) [µg/mL] | inhibition at 0.3 µg/mL (Huh-7 (Liver)) [%] | IC50 (B16F10 (Melanoma)) [µg/mL] | IC50 (A549 (Lung)) [µg/mL] | inhibition at 10 µg/mL (A549 (Lung)) [%] | IC50 (LN-229 (Brain, Glioma)) [µg/mL] | inhibition at 0.3 µg/mL (HCT-116 (Colon rectal)) [%] | also measured
1 | COC1C(=O)C(C)[C@@H](C/C=C(\C)CC/C=C(\C)CCCC(C)CO)[C@@H](O)C1(OC)OC (some centres unmarked) [AC012-H2] | > 10 | 8.31 | > 10 | 31.6 | > 10 | 5.66 | > 10 |  |  |  |  |  |  |  |  | inhibition at 10 µg/mL (HCT-116 (Colon rectal); HCT-116, in 10 μg/ml): 40.3%
2 | COC1=C(OC)[C@H](OC(C)=O)[C@H](C/C=C(\C)CC/C=C(\C)C/C=C/C(C)(C)O)CC1=O [AC011] | > 10 | 7.57 | > 10 | 24.1 | > 10 | 31.6 | 2.43 (≈ 5.59 µM) |  |  |  |  |  |  |  |  | 
3 | COC1=C(OC)[C@H](OC(C)=O)[C@H](C/C=C(\C)CC/C=C(\C)CCCC(C)CO)[C@@H](C)C1=O (some centres unmarked) [AC012] | > 10 | 20.2 | > 10 | 34.7 | > 10 | 9.05 | 2.29 (≈ 5.08 µM) | 11.4 (≈ 25.2 µM) | < 0.3 | 78.9 | 9.16 (≈ 20.3 µM) | > 10 | 49.5 | 19.4 (≈ 43.2 µM) |  | IC50 [1]: 29 µg/mL (≈ 64.4 µM); inhibition at 1 µg/mL (EPCs in presence of VEGF): 31.9%; IC50 (Sk-Hep-1 (Liver)): 8.27 µg/mL (≈ 18.4 µM); IC50 (U251 (Brain, Glioma)): 22.7 µg/mL (≈ 50.4 µM); IC50 (U87 (Brain, Glioma)): 18.6 µg/mL (≈ 41.3 µM)
4 | COC1=C(OC)[C@H](O)[C@H](C/C=C(\C)CC/C=C(\C)C/C=C/C(C)(C)O)[C@@H](C)C1=O [AC007-H1] | > 10 | 16.1 | > 10 | 33 | > 10 | 18.2 | < 0.3 |  | < 0.3 | 85.2 |  | 1.69 (≈ 4.16 µM) |  |  | 59.5 | 
5 | COC1=C(OC)[C@H](O)[C@H](C/C=C(\C)CC/C=C(\C)CCCC(C)CO)[C@@H](C)C1=O (some centres unmarked) [AC012-H1] | > 10 | 11.8 | > 10 | 17.5 | > 10 | 14.8 | < 0.3 |  | < 0.3 | 91.2 |  | 6.4 (≈ 15.7 µM) |  |  | 52.7 | 
6 | COC1=C(OC)[C@H](OC(C)=O)[C@H](C/C=C(\C)CC/C=C(\C)CC/C=C(\C)CO)[C@@H](C)C1=O [AC009] | 14.6 (≈ 32.6 µM) | 8.75 | 15.9 (≈ 35.5 µM) | 33.2 | 18.6 (≈ 41.4 µM) | 7.98 | 2.56 (≈ 5.71 µM) | 15 (≈ 33.4 µM) | < 0.3 | 88.2 | 22.4 (≈ 50 µM) | 8.08 (≈ 18 µM) |  | 19.5 (≈ 43.5 µM) |  | IC50 (DLD-1 (Colorectal); DLD-1, 48 hours): > 10 µg/mL; IC50 (RKO (Colorectal); 48 hours): > 10 µg/mL; IC50 (SW-480 (Colon rectal)): > 10 µg/mL; IC50 (NST (Colon); 48 hours): > 25 µg/mL; inhibition at 25 µg/mL (NST (Colon); in 25 μg/ml): 44.4%; IC50 (HT-29 (Colon)): 33.2 µg/mL (≈ 74.1 µM); IC50 (COLO205 (Colon)): 2.45 µg/mL (≈ 5.46 µM)
7 | COC1=C(OC)[C@H](OC(C)=O)[C@H](C/C=C(\C)CC/C=C(\C)C/C=C/C(C)(C)O)[C@@H](C)C1=O [AC007] | 19.7 (≈ 44 µM) | 25.6 | 17.6 (≈ 39.2 µM) | 29.5 | > 10 | 21.5 | 0.93 (≈ 2.07 µM) | 22.1 (≈ 49.2 µM) | 0.88 (≈ 1.96 µM) |  | 23.4 (≈ 52.3 µM) | 3.57 (≈ 7.96 µM) |  | > 25 |  | inhibition at 25 µg/mL (LN-229 (Brain, Glioma); LN-229, in 25 μg/ml): 19.1%; IC50 (4T-1 (Breast)): 24.8 µg/mL (≈ 55.3 µM); IC50 (DLD-1 (Colorectal); DLD-1, 48 hours): > 10 µg/mL; IC50 (RKO (Colorectal); 48 hours): > 10 µg/mL
8 | COC1=C(OC)[C@H](O)[C@H](C/C=C(\C)CC/C=C(\C)CC/C=C(\C)CO)[C@@H](C)C1=O [AC009-H1] | > 10 | 11 | > 10 | 8.79 | > 10 | 4.01 | < 0.3 |  | < 0.3 | 90.6 |  | > 10 | 40.8 |  | 54.4 | 
9 | COC1=C(OC)[C@H](OC(C)=O)[C@H](C/C=C(\C)CC/C=C(\C)C[C@H](O)C=C(C)C)[C@@H](C)C1=O [AC006] |  |  |  |  |  |  |  | 19.7 (≈ 43.9 µM) | 0.72 (≈ 1.6 µM) |  | 28.7 (≈ 64 µM) | > 10 | 12.2 | > 30 |  | IC50 (Sk-Hep-1 (Liver)): 26.8 µg/mL (≈ 59.7 µM); IC50 (U251 (Brain, Glioma)): > 30 µg/mL; inhibition at 30 µg/mL (U251 (Brain, Glioma); U251, in 30 μg/ml): 22.6%; IC50 (U87 (Brain, Glioma)): > 30 µg/mL; inhibition at 30 µg/mL (U87 (Brain, Glioma); U87, in 30 μg/ml): 11.3%; inhibition at 30 µg/mL (LN-229 (Brain, Glioma); LN-229, in 30 μg/ml): 22.6%
